We go through 14 compounds from patent US7060683B2, “Hydroxamate-containing cysteine and serine protease inhibitors” (Cephalon, Inc., priority 1998, dated 2006).

This assay concerns the target T1, Recombinant human calpain I (Homo sapiens, UniProt P07384).
T1 construct: made in house
T1 sequence (P07384 1-714): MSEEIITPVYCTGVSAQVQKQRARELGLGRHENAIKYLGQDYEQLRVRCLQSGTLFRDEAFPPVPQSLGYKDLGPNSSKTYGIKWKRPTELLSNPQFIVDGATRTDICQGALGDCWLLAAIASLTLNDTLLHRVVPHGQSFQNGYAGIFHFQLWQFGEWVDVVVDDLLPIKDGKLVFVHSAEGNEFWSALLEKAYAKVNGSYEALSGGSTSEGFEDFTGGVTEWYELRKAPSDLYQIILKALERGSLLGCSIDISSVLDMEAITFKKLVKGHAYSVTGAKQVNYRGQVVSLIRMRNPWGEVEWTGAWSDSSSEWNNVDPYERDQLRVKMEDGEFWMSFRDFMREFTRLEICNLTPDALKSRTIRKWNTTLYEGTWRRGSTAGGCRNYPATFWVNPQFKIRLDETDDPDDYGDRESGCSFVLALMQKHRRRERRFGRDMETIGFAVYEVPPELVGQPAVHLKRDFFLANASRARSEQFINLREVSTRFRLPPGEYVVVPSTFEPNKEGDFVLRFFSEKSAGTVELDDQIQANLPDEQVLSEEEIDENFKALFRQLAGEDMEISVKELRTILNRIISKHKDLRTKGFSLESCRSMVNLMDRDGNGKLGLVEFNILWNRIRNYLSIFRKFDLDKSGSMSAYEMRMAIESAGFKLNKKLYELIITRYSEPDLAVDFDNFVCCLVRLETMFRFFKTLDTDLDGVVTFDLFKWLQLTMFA
T1 sequence (P04632 1-268 partner): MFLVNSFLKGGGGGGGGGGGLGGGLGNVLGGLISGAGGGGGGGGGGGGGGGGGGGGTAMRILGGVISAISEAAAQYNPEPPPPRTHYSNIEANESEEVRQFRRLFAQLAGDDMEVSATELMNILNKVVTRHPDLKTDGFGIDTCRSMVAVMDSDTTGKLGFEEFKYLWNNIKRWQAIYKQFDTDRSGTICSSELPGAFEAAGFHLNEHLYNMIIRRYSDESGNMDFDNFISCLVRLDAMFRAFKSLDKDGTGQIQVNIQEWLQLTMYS
The assay can be described thus: Inhibition of Calpain (Succ-Leu-Tyr-MNA substrate hydrolysis). To be noted: 0.2 mM Succ-Leu-Tyr-MNA, pH 7.5, five to seven concentrations. The class given is biochemical. As to the method:
To evaluate inhibitory activity, stock solutions (40 times concentrated) of each compound to be tested were prepared in 100% anhydrous DMSO and 5 μL of each inhibitor preparation were aliquoted into each of three wells of a 96-well plate. Recombinant human calpain I, prepared by the method of Meyer et al. (Biochem., J. 1996, 314: 511–519), was diluted into assay buffer (i.e., 50 mM Tris, 50 mM NaCl, 1 mM EDTA, 1 mM EGTA, and 5 mM β-mercaptoethanol, pH 7.5, including 0.2 mM Succ-Leu-Tyr-MNA), and 175 μl was aliquoted into the same wells containing the independent inhibitor stocks as well as to positive control wells containing 5 μl DMSO, but no compound. To start the reaction, 20 μl of 50 mM CaCl2 in assay buffer was added to all wells of the plate, excepting three, which were used as background signal baseline controls. Substrate hydrolysis was monitored every 5 minutes for a total of 30 minutes.
Inhibition of calpain I activity was calculated as the percent decrease in the rate of substrate hydrolysis in the presence of inhibitor relative to the rate in its absence. Comparison between the inhibited and control rates was made within the linear range for substrate hydrolysis. The IC50s of inhibitors (concentration yielding 50% inhibition) were determined from the percent decrease in rates of substrate hydrolysis in the presence of five to seven different concentrations of the test compound. The results were plotted as percent inhibition versus log inhibitor concentration, and the IC50 was calculated by fitting the data to the four-parameter logistic equation shown below using the program GraphPad Prism (GraphPad Software, Inc., San Diego, Calif.). y=d+[(a−d)/(1+(x/c)^b)]
The parameters a, b, c, and d are defined as follows: a is % inhibition in the absence of inbibitor, b is the slope, c is the IC50, and d is the % innibition at an infinite concentration of inhibitor.
On to `CS(=O)(=O)N[C@H](COCc1ccccc1)C(=O)N[C@@H](Cc1ccccc1)C(=O)C(=O)NOCc1ccccc1` [Example 8, CH3SO2-D-Ser(Bn)-Phe-CONHOBn], for which the IC50 is 0.028 µM.
The value for `CCONC(=O)C(=O)[C@H](Cc1ccccc1)NC(=O)[C@H](CC(C)C)NC(=O)OCc1ccccc1` [Example 2, Cbz-Leu-Phe-CONHOEt] was 0.019 µM; that for `COC[C@H](NC(=O)[C@@H](COCc1ccccc1)NS(C)(=O)=O)C(=O)C(=O)NOCc1ccccc1` [Example 7, CH3SO2-D-Ser(Bn)-Ser(Me)-CONHOBn] was 0.152 µM; that for `CC(C)C[C@H](NC(=O)OCc1ccccc1)C(=O)N[C@@H](Cc1ccccc1)C(=O)C(=O)NOCc1ccccc1` [Example 3, Cbz-Leu-Phe-CONHOBn] was 0.006 µM.
The value for `CC(C)C[C@H](NC(=O)OCc1ccccc1)C(=O)N[C@@H](Cc1ccccc1)C(=O)C(=O)NOC1CCC(C)CC1` (stereo partly drawn) [Example 6, Cbz-Leu-Phe-CONHO(4-methylcyclohexane)] was 0.021 µM; that for `CC(C)C[C@H](NC(=O)OCc1ccccc1)C(=O)N[C@@H](CC(C)C)C(=O)N[C@@H](Cc1ccccc1)C(=O)C(=O)NOCc1ccccc1` [Example 13, Cbz-Leu-Leu-Phe-CONHOBn] was 0.017 µM; that for `CONC(=O)C(=O)[C@H](Cc1ccccc1)NC(=O)[C@H](CC(C)C)NC(=O)[C@H](CC(C)C)NC(=O)OCc1ccccc1` [Example 12, Cbz-Leu-Leu-Phe-CONHOCH3] was 0.02 µM.
The result for `CCCC[C@H](NC(=O)[C@@H](NC(=O)OCc1ccccc1)C(C)C)C(=O)C(=O)NOCc1ccccc1` [Example 11, Cbz-Val-Nle-CONHOBn] reads 0.021 µM; that for `CCONC(=O)C(=O)[C@H](Cc1ccccc1)NC(=O)[C@@H](COCc1ccccc1)NS(C)(=O)=O` [Example 9], 0.056 µM.
With `CCCCONC(=O)C(=O)[C@H](Cc1ccccc1)NC(=O)[C@H](CC(C)C)NC(=O)OCc1ccccc1` [Example 14, Cbz-Leu-Phe-CONHOBu], the IC50 was determined as 0.183 µM.
In the case of `CONC(=O)C(=O)[C@H](Cc1ccccc1)NC(=O)[C@H](CC(C)C)NC(=O)OCc1ccccc1` [Example 1, Cbz-Leu-Phe-CONHOCH3], the IC50 is 0.01 µM.
The result for `CCCC[C@H](NC(=O)[C@H](Cc1ccccc1)NC(=O)c1ccccc1)C(=O)C(=O)NOCC` [Example 15, PhCO-Phe-Nle-CONHOEt] reads 0.193 µM; that for `CC(C)C[C@H](NC(=O)OCc1ccccc1)C(=O)N[C@@H](Cc1ccccc1)C(=O)C(=O)NOCc1c(F)c(F)c(F)c(F)c1F` [Example 4, Cbz-Leu-Phe-CONHOCH2C6F5], 0.017 µM; that for `CC(C)C[C@H](NC(=O)OCc1ccccc1)C(=O)N[C@@H](Cc1ccccc1)C(=O)C(=O)NOC(C)(C)C` [Example 5, Cbz-Leu-Phe-CONHOtBu], 0.026 µM.

One may read the IC50 as the point on the concentration scale where inhibition reaches its midpoint.
